Publication PMC5769417, “Single- and Multiple-Dose Trials to Determine the Pharmacokinetics, Safety, Tolerability, and Sex Effect of Oral Ginsenoside Compound K in Healthy Chinese Volunteers” (Frontiers in Pharmacology, 2018)
Where two headings read alike, the source gives them in different places.

Experiment: Multiple-dose trial, plasma pharmacokinetics
Type: in vivo, human
Settings: for AUC: Day 15, read-out: AUCτ (zero to 24 h); for concentration at 15 day: Day 15, steady state, read-out: Cmin
Procedure: Multiple-dose pharmacokinetics: […] Multiple-dose pharmacokinetics: […] All samples were preserved at −70°C and analyzed with a LC-MS/MS (API 4000 LC-MS/MS, ABI Company, Foster City, CA, USA) at the Institute of Clinical Pharmacology, Central South University (Changsha, China). […] An aqueous solution of a stable internal standard (IS for CK: digoxin, Shijiaoke Biological Technology Co. Ltd., Beijing, China; IS for PPD: coumarin, Sigma-Aldrich, St. Louis, USA) and 1 M phosphate buffer were added to 0.5 ml of thawed sample, and analytical standards and quality control (QC) samples were prepared in the same matrix. All samples were treated with 2 ml of methyl tert-butyl ether (MTBE, CNW technologies GmbH, Duesseldorf, Germany) to precipitate the bulk of plasma proteins. After mechanical shock by mixing for 10 min and a subsequent centrifugation (4,000 rpm, 4°C, 10 min), 1.4 ml of the supernatant was transferred and blow-dried with nitrogen in a water bath at 40°C. Lastly, the residue was dissolved in 100 μl of mobile phase and then was subjected to a mechanical shock by mixing, and centrifuged. The supernatant was subsequently injected into the column for analysis. […] Accuracy and precision of the assay were determined by evaluating the performance of the assay controls. Over the quantification range, the accuracy of the QC samples varied from 85 to 115% and the intra- and inter-assay imprecision was <15%. […] The area under the curve (AUC) from time zero to the last time point (AUClast) and the AUC extrapolated to infinity (AUCinf) were calculated using the linear trapezoidal rule. The slope (elimination rate constant, K) of the terminal phase of the plasma concentration-time profile was determined, using a weighting factor of 1, by the method of least squares (log-linear regression of at least three data points). The t1/2 was estimated as (ln2)/K. […] The apparent volume of distribution (V/F) was equal to (CL/F)/K. The mean residence time (MRT) was calculated as the area under the first moments curve (AUMC) divided by AUC. The dose-normalized PK parameters e.g., Cmax/D and AUClast/D, were obtained by dividing each PK result by the administered dose. The cumulative excretion rate was calculated as the amount of unchanged drug in the urine over a time interval divided by the dose and was expressed as thousand points (‰). On day 15 in the multiple-dose trial, the PK parameters, such as t1/2, CL/F, and V/F at steady state were calculated using the same method as that used for the single-dose trial. In addition, the Tmax at steady state (Tmax,ss), Cmax at steady state (Cmax,ss), and Cmin,ss were obtained from experimental observation after the steady state during the multiple-dose trial. […] The average steady-state drug concentration (Cavg) is calculated as AUCτ/τ, and the fluctuation ratio was calculated as (Cmax,ss − Cmin,ss)/Cavg. The accumulation index was calculated using dosing interval and elimination rate constant as in the following equation: 1/(1 − e^−Kτ).

[1] = both sexes, human, plasma, 200 mg qd oral after breakfast
[2] = both sexes, human, plasma, 400 mg qd oral after breakfast
[3] = both sexes, human, plasma, po, 100 mg, 100 mg oral after breakfast, Day 1
[4] = both sexes, human, plasma, po, 100 mg, 100 mg qd oral after breakfast, Day 15
[5] = both sexes, human, plasma, po, 200 mg, 200 mg oral after breakfast, Day 1
[6] = both sexes, human, plasma, po, 200 mg, 200 mg qd oral after breakfast, Day 15
[7] = both sexes, human, plasma, po, 400 mg, 400 mg oral after breakfast, Day 1
[8] = both sexes, human, plasma, po, 400 mg, 400 mg qd oral after breakfast, Day 15

Work on `CC(C)=CCC[C@](C)(OC1O[C@H](CO)[C@@H](O)[C@H](O)[C@H]1O)[C@H]1CC[C@]2(C)[C@@H]1[C@H](O)C[C@@H]1[C@@]3(C)CC[C@H](O)C(C)(C)[C@@H]3CC[C@]12C` (stereo partly drawn) [CK, 20-O-beta-D-glucopyranosyl-20(S)-protopanaxadiol] yielded an AUC [1] of 24700 ± 6290 ng·h/mL, a concentration at 15 day [1] of 1030 ± 262 ng/mL and an MRT last (both sexes, human, plasma, 400 mg oral after breakfast, Day 1) of 12.5 ± 1 h. For the same molecule, the AUC [2] was 41400 ± 10400 ng·h/mL, the concentration at 15 day [2] was 1730 ± 432 ng/mL and the half-life (both sexes, human, plasma, oral, 400 mg, Day 1, 100, 200 or 400 mg, read-out: mean t1/2 across the dose groups) was 23.4 to 26.1 h. The Tmax (both sexes, human, plasma, oral, 400 mg, Day 1, 100, 200 or 400 mg, read-out: median Tmax across the dose groups) was 2.5 to 3 h, the Tmax (both sexes, human, plasma, oral, Day 1, all subjects, read-out: Tmax, median (range)) was 3 h and the half-life (both sexes, human, plasma, oral, Day 1, all subjects, read-out: t1/2 (converted)) was 24.9 ± 5.8 h. For the same molecule, the Tmax (both sexes, human, plasma, oral, Day 15, all subjects, read-out: Tmax, median (range)) was 3.5 h, the half-life (both sexes, human, plasma, oral, Day 15, all subjects, read-out: t1/2 (converted)) was 35.3 ± 9.6 h and the AUC(0-inf) [3] was 9070 ± 2060 ng·h/mL. For the same molecule, the AUC(0-t) [3] was 8880 ± 1990 ng·h/mL, the MRT inf [3] was 14.6 ± 2.1 h and the Cmax (both sexes, human, plasma, po, 100 mg, 100 mg oral after breakfast, Day 1, read-out: Cmax) was 1120 ± 411 ng/mL. The half-life (both sexes, human, plasma, po, 100 mg, 100 mg oral after breakfast, Day 1, read-out: t1/2 (converted)) was 25.2 ± 5.6 h, the AUC(0-inf) [4] was 11100 ± 3230 ng·h/mL and the AUC(0-t) [4] was 10400 ± 3010 ng·h/mL. The MRT inf [4] was 17 ± 2.2 h, the Cmax (both sexes, human, plasma, po, 100 mg, 100 mg qd oral after breakfast, Day 15, read-out: Cmax) was 934 ± 323 ng/mL and the Tmax (both sexes, human, plasma, po, 100 mg, 100 mg qd oral after breakfast, Day 15, read-out: Tmax, median (range)) was 3.8 h. The half-life (both sexes, human, plasma, po, 100 mg, 100 mg qd oral after breakfast, Day 15, read-out: t1/2 (converted)) was 34.6 ± 10.5 h, the AUC(0-inf) [5] was 22700 ± 6350 ng·h/mL and the AUC(0-t) [5] was 22300 ± 6320 ng·h/mL. The MRT inf [5] was 14.9 ± 2 h, the Cmax (both sexes, human, plasma, po, 200 mg, 200 mg oral after breakfast, Day 1, read-out: Cmax) was 2880 ± 984 ng/mL and the Tmax (both sexes, human, plasma, po, 200 mg, 200 mg oral after breakfast, Day 1, read-out: Tmax, median (range)) was 3 h. The half-life (both sexes, human, plasma, po, 200 mg, 200 mg oral after breakfast, Day 1, read-out: t1/2 (converted)) was 23.4 ± 7.9 h, the AUC(0-inf) [6] was 34000 ± 9060 ng·h/mL and the AUC(0-t) [6] was 31600 ± 8130 ng·h/mL. It also gave an MRT inf [6] of 16.1 ± 1.6 h, a Cmax (both sexes, human, plasma, po, 200 mg, 200 mg qd oral after breakfast, Day 15, read-out: Cmax) of 3180 ± 877 ng/mL and a Tmax (both sexes, human, plasma, po, 200 mg, 200 mg qd oral after breakfast, Day 15, read-out: Tmax, median (range)) of 3.5 h. It also gave a half-life (both sexes, human, plasma, po, 200 mg, 200 mg qd oral after breakfast, Day 15, read-out: t1/2 (converted)) of 37.3 ± 12.3 h, an AUC(0-inf) [7] of 44900 ± 11200 ng·h/mL and an AUC(0-t) [7] of 43900 ± 11100 ng·h/mL. For the same molecule, the MRT inf [7] was 15.2 ± 1.5 h, the Cmax (both sexes, human, plasma, po, 400 mg, 400 mg oral after breakfast, Day 1, read-out: Cmax) was 5060 ± 1650 ng/mL and the Tmax (both sexes, human, plasma, po, 400 mg, 400 mg oral after breakfast, Day 1, read-out: Tmax, median (range)) was 3 h. The half-life (both sexes, human, plasma, po, 400 mg, 400 mg oral after breakfast, Day 1, read-out: t1/2 (converted)) was 26.1 ± 3.3 h, the AUC(0-inf) [8] was 59200 ± 13300 ng·h/mL and the AUC(0-t) [8] was 55200 ± 12800 ng·h/mL. For the same molecule, the MRT inf [8] was 17.9 ± 1.8 h, the Cmax (both sexes, human, plasma, po, 400 mg, 400 mg qd oral after breakfast, Day 15, read-out: Cmax) was 5170 ± 1500 ng/mL and the half-life (both sexes, human, plasma, po, 400 mg, 400 mg qd oral after breakfast, Day 15, read-out: t1/2 (converted)) was 34.2 ± 5.3 h. It also gave a Tmax (female, human, plasma, oral, Day 1, Female, read-out: Tmax, median (range)) of 3 h, a half-life (female, human, plasma, oral, Day 1, Female, read-out: t1/2 (converted)) of 26.4 ± 6.2 h and a Tmax (female, human, plasma, oral, Day 15, Female, read-out: Tmax, median (range)) of 3.5 h. It also gave a half-life (female, human, plasma, oral, Day 15, Female, read-out: t1/2 (converted)) of 36.3 ± 1.05 h, a Tmax (male, human, plasma, oral, Day 1, Male, read-out: Tmax, median (range)) of 3 h and a half-life (male, human, plasma, oral, Day 1, Male, read-out: t1/2 (converted)) of 23.3 ± 5.2 h. The Tmax (male, human, plasma, oral, Day 15, Male, read-out: Tmax, median (range)) was 3.5 h, the half-life (male, human, plasma, oral, Day 15, Male, read-out: t1/2 (converted)) was 34.3 ± 9.8 h and the steady state reached (once daily) was “after the 7th administration”. The Accumulation index (overall) was about 2.66.
